The source made the active and inactive calls. No cut-off for these calls is given here. A value given as a limit tells only on which side of the number the result lay.

For one data set, the system named is K562. Nature of the data set: Growth inhibition of human K562 cells at 2 uM after 3 days by Alamar blue assay. It is filed as functional, cell-based. In general terms: Resazurin is reduced to fluorescent resorufin, in cell work by metabolically active cells.
A short description of data set [1]: Cytotoxicity against Drosophila melanogaster S2 cells assessed as inhibition of beta-galactosidase gene expression. It is filed as cell-based.
For data set [2], the system named is S2. Nature of the data set: Inhibition of heat shock-mediated activation of hs-Gal4/UAS-lacZ gene expression in Drosophila melanogaster S2 cells after 12 hrs by beta-galactosidase reporter assay. It is filed as functional, cell-based. Background: In a reporter assay the amount or activity of a reporter protein is the signal.
The test system of the next data set is 3T3-L1. Nature of the data set: Growth inhibition of mouse 3T3L1 cells at 10 uM after 3 days by Alamar blue assay. It is filed as cell-based. To be noted: 3t3-l1, 72 h.
The test system of data set [3] is S2. The data set is described as follows: Inhibition of innate immune response in Drosophila melanogaster S2 cells assessed as reduction in DAP-type peptidoglycans-mediated activation of Dpt-LacZ gene expression at 1 uM after 12 hrs by beta-galactosidase reporter assay. It is filed as functional, cell-based.
For another data set, the system named is HeLa. The data set is described as follows: Growth inhibition of human HeLa cells at 5 uM after 3 days by Alamar blue assay. It is filed as functional, cell-based.
In data set [4] the test system is Dictyostelium discoideum. Nature of the data set: Induction of stalk cell differentiation in Dictyostelium discoideum HM44 after 2 days by phase-contrast microscopy. It is filed as functional, organism-based.
A short description of data set [5]: Cytotoxicity against Drosophila melanogaster S2 cells assessed as cell viability up to 1 uM. It is filed as cell-based.
Data set [6] has as its system Dictyostelium discoideum. Nature of the data set: Induction of stalk cell differentiation in Dictyostelium discoideum HM44 at 1 nM after 2 days by phase-contrast microscopy. It is filed as functional.
Data set [7] has as its system Dictyostelium discoideum. Nature of the data set: Induction of stalk cell differentiation in Dictyostelium discoideum HM44 at […] after 2 days by phase-contrast microscopy. It is filed as functional, organism-based.

For `CCCC(=O)c1c(OC)c(Cl)c2oc3c(Cl)c(OC)c(Cl)c(O)c3c2c1O`, the “growth inhibition (GI)” value in the data set with K562 and in the data set on HeLa was “Active” throughout. Further, the values for the Activity entry (in data set [1]; with Dictyostelium discoideum [4]; in [5]) were “Non-toxic”, “Dose-dependent effect” and “Non-toxic”, respectively. The inhibition result in the data set with S2 [2] is “Dose-dependent effect”. Further, in the data set with 3T3-L1, the “growth inhibition (GI)” value was “Toxic”. Besides, the inhibition result in the data set on S2 [3] is “Active”.

Molecule `CCCCCC(=O)c1c(O)c(Cl)c(OC)c(Cl)c1O` displayed an Activity in the data set with Dictyostelium discoideum [6] above 80%.

As to `CCCCCC(=O)c1c(OC)c(Cl)c2oc3c(Cl)c(OC)c(Cl)c(O)c3c2c1O`, the “growth inhibition (GI)” value with K562 and in the data set with HeLa was “Active” each time. Further, the Activity entry in [1] and in data set [5] was “Non-toxic” throughout. Further, the inhibition entry in the data set with S2 [2] is “Dose-dependent effect”. Further, the “growth inhibition (GI)” value with 3T3-L1 is given as “Toxic”. In addition, the inhibition entry in the data set with S2 [3] is “Active”. Moreover, the result in the data set with Dictyostelium discoideum [7] was inactive.

As to `CCCC(=O)c1c(OC)c(Cl)c2oc3c(Cl)c(OC)c(Cl)c(O)c3c2c1OC`, the “growth inhibition (GI)” value in the data set on K562 and with HeLa was “inactive” each time. Also, in the data set on 3T3-L1, the “growth inhibition (GI)” value is “Non-toxic”. For the same molecule, in the data set on S2 [3], the inhibition entry was “inactive”. Besides, the result in the data set on Dictyostelium discoideum [7] was inactive.
